Here are results for 14 molecules from patent US20240156093A1 (priority 2021, published 2024).

In brackets after ≈: the same amount, converted by molar mass.

Data set [1] in a line: physchem. The settings on record: 25 °C, water.
A short description of data set [2]: physchem.
Data set [3] deals with feline calicivirus (non-enveloped virus). The format is cell-based.
Data set [4] concerns influenza virus (enveloped virus). It counts as cell-based.

One may read the solubility as how much of the substance goes into solution per volume. Low values mean little dissolved substance, high ones much dissolved substance. In the data set “physchem [1]”, `O=C(O)c1ccccc1O` [Salicylic acid, salicylic acid] yielded a solubility of 2 mg/mL (≈ 14.5 mM).
As a reminder, the pKa is the pH at which an ionisable group is half protonated. Lower therefore signals a stronger acid or weaker base. Consider `O=C(O)CCCCC(=O)O` [Adipic acid, adipic acid], for which the pKa in “physchem [2]” was 4.34.
In the data set “physchem [1]”, `CCCCCC(=O)O` [caproic acid] yielded a solubility of 11 mg/mL (≈ 94.7 mM).
As for `CCCCCCC(=O)O` [enanthic acid], the solubility in the data set “physchem [1]” was found to be 2.4 mg/mL (≈ 18.4 mM).
As to `O=C(O)/C=C/C(=O)O` [Fumaric acid, fumaric acid], the solubility in “physchem [1]” stood at 6.3 mg/mL (≈ 54.3 mM). In the data set “physchem [2]”, this molecule showed a pKa of 3.02.
As for `CCCCCCCCCCCCc1ccc(S(=O)(=O)[O-])cc1.[Na+]` [Comparative example 2, sodium dodecylbenzene sulfonate], in data set [3], the “Feline calicivirus: Antiviral activity value” is 0.3 and the “Feline calicivirus: Virus infectivity titer common logarithmic value” was found to be 6.2 PFU/cm^2. In addition, in data set [4], the “Influenza virus: Antiviral activity value” is recorded as 2.0 and the “Influenza virus: Virus infectivity titer common logarithmic value” was determined as 4.5 PFU/cm^2.
Regarding `CCCCCCCCCCCC(=O)O` [Lauric acid, lauric acid], in “physchem [1]”, the solubility was 0.0048 mg/mL (≈ 0.024 mM). Moreover, the pKa in the data set “physchem [2]” amounted to 4.92.
For `CCCCCCCC/C=C\CCCCCCCC(=O)O` [Oleic acid, oleic acid], the pKa in “physchem [2]” stood at 5.35.
In turn, `O=C(O)c1ccc(C(=O)O)cc1` [terephthalic acid] came in with a solubility in “physchem [1]” of 0.017 mg/mL (≈ 0.102 mM).
In “physchem [1]”, `O=C(O)c1ccccc1C(=O)O` [Phthalic acid, phthalic acid] gave a solubility of 7.2 mg/mL (≈ 43.3 mM). The pKa in “physchem [2]” turned out to be 2.94.
For the molecule `CCCCCCCCC(=O)O` [pelargonic acid], in “physchem [1]”, the solubility came out at 0.28 mg/mL (≈ 1.77 mM).
The molecule `O=C(O)c1cccc(C(=O)O)c1` [isophthalic acid] yielded a solubility in the data set “physchem [1]” of 0.13 mg/mL (≈ 0.783 mM).
Consider `Nc1ccc(C(=O)O)cc1` [4-aminobenzoic acid], for which the concentration in solution in the data set “physchem [1]” (solubility) came to 6 mg/mL (≈ 43.8 mM).
In the case of `O=C(O)CCCCC(=O)O` [Comparative example 3, adipic acid], in data set [3], the “Feline calicivirus: Antiviral activity value” came to 0.5 and the “Feline calicivirus: Virus infectivity titer common logarithmic value” worked out at 6 PFU/cm^2. The “Influenza virus: Antiviral activity value” in data set [4] came out at 1.7.
